According to ChEMBL document CHEMBL1154088, “Synthesis, biological evaluation and docking studies of novel benzopyranone congeners for their expected activity as anti-inflammatory, analgesic and antipyretic agents” (Bioorg Med Chem, 2009):

test system: Mus musculus; assay: Analgesic activity in mouse assessed as protection against acetic acid-induced writhing at one-tenth of LD50 administered subcutaneously 30 mins before acetic acid challenge measured after 4 hrs relative to control; assay type: functional; settings: not given

Row | SMILES | Activity [%]
1 | COc1ccc(C2CC(c3c(O)ccc4c(-c5ccccc5)cc(=O)oc34)=NN2)cc1 (stereo not given) | 0.71
2 | COc1ccc(-c2cc(-c3c(O)ccc4c(-c5ccccc5)cc(=O)oc34)[nH]c(=O)c2C#N)cc1 | 1.18
3 | C/C(=N\Nc1ccc([N+](=O)[O-])cc1[N+](=O)[O-])c1c(O)ccc2c(-c3ccccc3)cc(=O)oc12 | 4.47
4 | O=c1cc(-c2ccccc2)c2ccc(O)c(C3=NN(c4ccccc4)C(c4ccc(Cl)cc4)C3)c2o1 (stereo not given) | 3.11
5 | O=c1cc(-c2ccccc2)c2ccc(O)c(C3=NN(c4ccc([N+](=O)[O-])cc4[N+](=O)[O-])C(c4ccc(Cl)cc4)C3)c2o1 (stereo not given) | 1.4

test system: Rattus norvegicus; assay: Antipyretic activity against yeast-induced hyperpyrexia in hyperthermic rat assessed as rectal temperature at one-tenth of LD50 administered subcutaneously 18 hrs after yeast challenge measured after 1 hr (Rvb=39.24 +/- 0.22 degC); assay type: functional; settings: not given

Row | SMILES | Activity [°C]
6 | COc1ccc(C2CC(c3c(O)ccc4c(-c5ccccc5)cc(=O)oc34)=NN2)cc1 (stereo not given) | 38.81
7 | COc1ccc(-c2cc(-c3c(O)ccc4c(-c5ccccc5)cc(=O)oc34)[nH]c(=O)c2C#N)cc1 | 38.81
8 | C/C(=N\Nc1ccc([N+](=O)[O-])cc1[N+](=O)[O-])c1c(O)ccc2c(-c3ccccc3)cc(=O)oc12 | 38.42
9 | O=c1cc(-c2ccccc2)c2ccc(O)c(C3=NN(c4ccccc4)C(c4ccc(Cl)cc4)C3)c2o1 (stereo not given) | 38.91
10 | O=c1cc(-c2ccccc2)c2ccc(O)c(C3=NN(c4ccc([N+](=O)[O-])cc4[N+](=O)[O-])C(c4ccc(Cl)cc4)C3)c2o1 (stereo not given) | 38.81

test system: Rattus norvegicus; assay: Antipyretic activity against yeast-induced hyperpyrexia in hyperthermic rat assessed as rectal temperature at one-tenth of LD50 administered subcutaneously 18 hrs after yeast challenge measured after 2 hrs (Rvb=39.11 +/- 0.26 degC); assay type: functional; settings: not given

Row | SMILES | Activity [°C]
11 | COc1ccc(C2CC(c3c(O)ccc4c(-c5ccccc5)cc(=O)oc34)=NN2)cc1 (stereo not given) | 38.91
12 | COc1ccc(-c2cc(-c3c(O)ccc4c(-c5ccccc5)cc(=O)oc34)[nH]c(=O)c2C#N)cc1 | 38.71
13 | C/C(=N\Nc1ccc([N+](=O)[O-])cc1[N+](=O)[O-])c1c(O)ccc2c(-c3ccccc3)cc(=O)oc12 | 38.05
14 | O=c1cc(-c2ccccc2)c2ccc(O)c(C3=NN(c4ccccc4)C(c4ccc(Cl)cc4)C3)c2o1 (stereo not given) | 38.81
15 | O=c1cc(-c2ccccc2)c2ccc(O)c(C3=NN(c4ccc([N+](=O)[O-])cc4[N+](=O)[O-])C(c4ccc(Cl)cc4)C3)c2o1 (stereo not given) | 38.91

test system: Rattus norvegicus; assay: Antipyretic activity against yeast-induced hyperpyrexia in hyperthermic rat assessed as rectal temperature at one-tenth of LD50 administered subcutaneously 18 hrs after yeast challenge measured after 3 hrs (Rvb=39.20 +/- 0.24 degC); assay type: functional; settings: not given

Row | SMILES | Activity [°C]
16 | COc1ccc(C2CC(c3c(O)ccc4c(-c5ccccc5)cc(=O)oc34)=NN2)cc1 (stereo not given) | 38.91
17 | COc1ccc(-c2cc(-c3c(O)ccc4c(-c5ccccc5)cc(=O)oc34)[nH]c(=O)c2C#N)cc1 | 38.64
18 | C/C(=N\Nc1ccc([N+](=O)[O-])cc1[N+](=O)[O-])c1c(O)ccc2c(-c3ccccc3)cc(=O)oc12 | 38.34
19 | O=c1cc(-c2ccccc2)c2ccc(O)c(C3=NN(c4ccccc4)C(c4ccc(Cl)cc4)C3)c2o1 (stereo not given) | 38.91
20 | O=c1cc(-c2ccccc2)c2ccc(O)c(C3=NN(c4ccc([N+](=O)[O-])cc4[N+](=O)[O-])C(c4ccc(Cl)cc4)C3)c2o1 (stereo not given) | 38.91

test system: Rattus norvegicus; assay: Antipyretic activity against yeast-induced hyperpyrexia in hyperthermic rat assessed as rectal temperature at one-tenth of LD50 administered subcutaneously 18 hrs after yeast challenge measured after 4 hrs (Rvb=39.17 +/- 0.20 degC); assay type: functional; settings: not given

Row | SMILES | Activity [°C]
21 | COc1ccc(C2CC(c3c(O)ccc4c(-c5ccccc5)cc(=O)oc34)=NN2)cc1 (stereo not given) | 39.15
22 | COc1ccc(-c2cc(-c3c(O)ccc4c(-c5ccccc5)cc(=O)oc34)[nH]c(=O)c2C#N)cc1 | 38.91
23 | C/C(=N\Nc1ccc([N+](=O)[O-])cc1[N+](=O)[O-])c1c(O)ccc2c(-c3ccccc3)cc(=O)oc12 | 38.93
24 | O=c1cc(-c2ccccc2)c2ccc(O)c(C3=NN(c4ccccc4)C(c4ccc(Cl)cc4)C3)c2o1 (stereo not given) | 39.05
25 | O=c1cc(-c2ccccc2)c2ccc(O)c(C3=NN(c4ccc([N+](=O)[O-])cc4[N+](=O)[O-])C(c4ccc(Cl)cc4)C3)c2o1 (stereo not given) | 38.94

test system: not listed separately; assay: Toxicity in sc dosed albino mouse up to 24 hrs; assay type: organism-based; settings: in vivo

Row | SMILES | LD50 at 24 h [mg/kg]
26 | COc1ccc(C2CC(c3c(O)ccc4c(-c5ccccc5)cc(=O)oc34)=NN2)cc1 (stereo not given) | 330
27 | COc1ccc(-c2cc(-c3c(O)ccc4c(-c5ccccc5)cc(=O)oc34)[nH]c(=O)c2C#N)cc1 | 330
28 | C/C(=N\Nc1ccc([N+](=O)[O-])cc1[N+](=O)[O-])c1c(O)ccc2c(-c3ccccc3)cc(=O)oc12 | 370
29 | O=c1cc(-c2ccccc2)c2ccc(O)c(C3=NN(c4ccccc4)C(c4ccc(Cl)cc4)C3)c2o1 (stereo not given) | 330
30 | O=c1cc(-c2ccccc2)c2ccc(O)c(C3=NN(c4ccc([N+](=O)[O-])cc4[N+](=O)[O-])C(c4ccc(Cl)cc4)C3)c2o1 (stereo not given) | 390

test system: Rattus norvegicus; assay: Antiinflammatory activity against carrageenan-induced foot paw edema in rat assessed as reduction in paw size at one-tenth of LD50 administered subcutaneously 30 mins before carrageenan challenge measured after 3 hrs relative to control; assay type: functional; design: scale not given: the % may be the effect or the level left; settings: not given

Row | SMILES | Activity [%]
31 | COc1ccc(C2CC(c3c(O)ccc4c(-c5ccccc5)cc(=O)oc34)=NN2)cc1 (stereo not given) | 8.7
32 | COc1ccc(-c2cc(-c3c(O)ccc4c(-c5ccccc5)cc(=O)oc34)[nH]c(=O)c2C#N)cc1 | 5.78
33 | C/C(=N\Nc1ccc([N+](=O)[O-])cc1[N+](=O)[O-])c1c(O)ccc2c(-c3ccccc3)cc(=O)oc12 | 0.67
34 | O=c1cc(-c2ccccc2)c2ccc(O)c(C3=NN(c4ccccc4)C(c4ccc(Cl)cc4)C3)c2o1 (stereo not given) | 18.85
35 | O=c1cc(-c2ccccc2)c2ccc(O)c(C3=NN(c4ccc([N+](=O)[O-])cc4[N+](=O)[O-])C(c4ccc(Cl)cc4)C3)c2o1 (stereo not given) | 11.27

test system: Mus musculus; assay: Analgesic activity in mouse assessed as protection against acetic acid-induced writhing at one-tenth of LD50 administered subcutaneously 30 mins before acetic acid challenge measured after 1 hr relative to control; assay type: functional; settings: not given

Row | SMILES | Activity [%]
36 | COc1ccc(C2CC(c3c(O)ccc4c(-c5ccccc5)cc(=O)oc34)=NN2)cc1 (stereo not given) | 10
37 | COc1ccc(-c2cc(-c3c(O)ccc4c(-c5ccccc5)cc(=O)oc34)[nH]c(=O)c2C#N)cc1 | 0.94
38 | C/C(=N\Nc1ccc([N+](=O)[O-])cc1[N+](=O)[O-])c1c(O)ccc2c(-c3ccccc3)cc(=O)oc12 | 16.7
39 | O=c1cc(-c2ccccc2)c2ccc(O)c(C3=NN(c4ccccc4)C(c4ccc(Cl)cc4)C3)c2o1 (stereo not given) | 0.71
40 | O=c1cc(-c2ccccc2)c2ccc(O)c(C3=NN(c4ccc([N+](=O)[O-])cc4[N+](=O)[O-])C(c4ccc(Cl)cc4)C3)c2o1 (stereo not given) | 0.93

test system: Mus musculus; assay: Analgesic activity in mouse assessed as protection against acetic acid-induced writhing at one-tenth of LD50 administered subcutaneously 30 mins before acetic acid challenge measured after 2 hrs relative to control; assay type: functional; settings: not given

Row | SMILES | Activity [%]
41 | COc1ccc(C2CC(c3c(O)ccc4c(-c5ccccc5)cc(=O)oc34)=NN2)cc1 (stereo not given) | 10.71
42 | COc1ccc(-c2cc(-c3c(O)ccc4c(-c5ccccc5)cc(=O)oc34)[nH]c(=O)c2C#N)cc1 | 2.84
43 | C/C(=N\Nc1ccc([N+](=O)[O-])cc1[N+](=O)[O-])c1c(O)ccc2c(-c3ccccc3)cc(=O)oc12 | 18.35
44 | O=c1cc(-c2ccccc2)c2ccc(O)c(C3=NN(c4ccccc4)C(c4ccc(Cl)cc4)C3)c2o1 (stereo not given) | 2.63
45 | O=c1cc(-c2ccccc2)c2ccc(O)c(C3=NN(c4ccc([N+](=O)[O-])cc4[N+](=O)[O-])C(c4ccc(Cl)cc4)C3)c2o1 (stereo not given) | 1.4

test system: Mus musculus; assay: Analgesic activity in mouse assessed as protection against acetic acid-induced writhing at one-tenth of LD50 administered subcutaneously 30 mins before acetic acid challenge measured after 3 hrs relative to control; assay type: functional; settings: not given

Row | SMILES | Activity [%]
46 | COc1ccc(C2CC(c3c(O)ccc4c(-c5ccccc5)cc(=O)oc34)=NN2)cc1 (stereo not given) | 5.23
47 | COc1ccc(-c2cc(-c3c(O)ccc4c(-c5ccccc5)cc(=O)oc34)[nH]c(=O)c2C#N)cc1 | 9.47
48 | C/C(=N\Nc1ccc([N+](=O)[O-])cc1[N+](=O)[O-])c1c(O)ccc2c(-c3ccccc3)cc(=O)oc12 | 13.41
49 | O=c1cc(-c2ccccc2)c2ccc(O)c(C3=NN(c4ccccc4)C(c4ccc(Cl)cc4)C3)c2o1 (stereo not given) | 3.35
50 | O=c1cc(-c2ccccc2)c2ccc(O)c(C3=NN(c4ccc([N+](=O)[O-])cc4[N+](=O)[O-])C(c4ccc(Cl)cc4)C3)c2o1 (stereo not given) | 0.93
